Assay results published in patent publication US7115590B1 (University College Cardiff Consultants Limited, priority 1999, dated 2006).
Read-outs that look alike come from different tables or passages of the source.

Key:
[1] = tested on: Hepatitis B Virus; test: Anti-Hepatitis B Virus activity; format: cell-based
Procedure: Compounds were tested for anti-Hepatitis B Virus activity according to the method described by Jansen, R. et al., Antimicrobial Agents and Chemotherapy, Vol. 37, No. 3, pp. 441–447, 1993, and results are shown in the table below.

[2] = Acid stability, acid-mediated hydrolytic decomposition simulating stomach conditions (HPLC); format: physicochemical; conditions: dilute hydrochloric acid pH 1, 37° C., initial 0.3 mg/ml
Procedure: Compounds according to the invention were tested for their stability towards acid-mediated hydrolytic decomposition employing a test designed to simulate stomach conditions. Each compound was incubated at an initial concentration of 0.3 mg/ml in dilute hydrochloric acid at pH 1 at 37° C. HPLC was run immediately for t=0 and at intervals up to approximately 24 hours.

[3] = format: in vitro ADME; conditions: normal heparized human plasma, 37° C.
Procedure: Each compound was incubated in normal heparized human plasma at 37° C. At selected time points duplicate samples were removed and deproteinated by acetonitrile extraction. Drug concentrations were then determined by LC/MS/MS analysis using standard methods.

SMILES	IC50 ([1]; Hepatitis B virus; read-out: IC50 (mM) vs. HBV) [nM]	Selectivity Index ([1]; vs. HBV)	melting point [°C]	half-life, acid stability [2] [h]	Half-life [3] [h]	IC50 ([1]; Hepatitis B virus, read-out: IC50 (mM) vs. HBV) [nM]
Nc1ncnc2c1ncn2[C@@H]1C=C[C@H](CO)C1 (relative stereo) [Example 1, (1R,cis)-4-(6-Amino-9H-purin-9-yl)-2-cyclopentene-1-methanol]	980	>200	195 to 200			
CCOC(=O)[C@H](Cc1ccccc1)NP(=O)(OC[C@H]1C=C[C@@H](n2cnc3c(N)ncnc32)C1)Oc1ccccc1 (relative stereo) [Example 7]		5000		76	53	
Nc1ncnc2c1ncn2[C@@H]1C=C[C@H](COP(=O)([O-])N[C@@H](Cc2ccccc2)C(=O)[O-])C1.[Na+].[Na+] (relative stereo) [Example 8]		>1800				
COC(=O)C(C)(C)NP(=O)(OC[C@H]1C=C[C@@H](n2cnc3c(N)ncnc32)C1)Oc1ccccc1 (stereo partly drawn) [Example 9]		5000				2
